One assay addresses T1, serotonin transporter (Rattus norvegicus, UniProt P31652).
T1 construct: displace ^3H-paroxetine from male rat cortical membranes; from tissue; host or cells: male rat cortical membranes
The assay is described as follows: 5-HT transporter affinity: displacement of 3H-paroxetine from male rat cortical membranes. It is filed as binding. The following applies: displacement of 3H-paroxetine; male rat cortical membranes; read-out: 5-HT Transporter Affinity Ki.

In assay [1] the target is T2, cloned human 5-HT1A receptors (Homo sapiens, UniProt P08908).
T2 construct: expressed in transfected cells
T2 sequence (P08908 1-422): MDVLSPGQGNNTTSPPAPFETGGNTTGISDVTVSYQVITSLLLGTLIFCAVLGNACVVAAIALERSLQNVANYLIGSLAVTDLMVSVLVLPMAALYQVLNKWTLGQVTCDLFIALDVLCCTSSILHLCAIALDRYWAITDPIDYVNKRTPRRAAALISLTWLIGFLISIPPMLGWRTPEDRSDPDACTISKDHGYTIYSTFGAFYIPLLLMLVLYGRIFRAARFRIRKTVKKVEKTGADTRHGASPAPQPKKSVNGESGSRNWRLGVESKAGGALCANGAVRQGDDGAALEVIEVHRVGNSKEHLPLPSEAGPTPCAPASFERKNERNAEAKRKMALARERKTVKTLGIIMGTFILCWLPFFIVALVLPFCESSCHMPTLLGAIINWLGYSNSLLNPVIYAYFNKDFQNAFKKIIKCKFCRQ
The experiment in a line: 35S-GTPγS binding assay, 5-HT1A function. It is filed as biochemical. The following applies: for IC50: antagonist potency, reversal of 8-OH-DPAT, read-out: 5-HT1A Function GTPγS IC50; for EC50: agonist potency.
Source text: (§1) The agonist or antagonist activity at 5-HT1A receptors was established by using two different assays. […] Agonists produce an increase in binding whereas antagonists produce no increase but rather reverse the effects of the standard agonist 8-OH-DPAT. The test compound's maximum stimulatory effect is represented as the Emax, while its potency is defined by the EC50. The test compound's maximum inhibitory effect is represented as the Imax, while its potency is defined by the IC50. The second assay measured cAMP accumulation upon binding of the ligand to the 5-HT1A receptor. […] The test compound's maximum stimulatory or inhibitory effect is represented as the Emax while its potency is defined by either IC50 for an antagonist or EC50 for an agonist. [^3H]-8-OH-DPAT was used to determine maximum agonist or antagonist response in both functional assays.

The target of assay [2] is T3, 5-HT1A receptor (Homo sapiens, UniProt P08908).
T3 sequence (P08908 1-422): T2 sequence (P08908 1-422)
The experiment in a line: cAMP accumulation assay, 5-HT1A function. Particulars: for IC50: cells marked IC50 (antagonist), read-out: 5-HT1A Function cAMP IC50; for Emax: read-out: 5-HT1A Function cAMP (Emax); for EC50: cells marked EC50 (agonist). Type of assay: cell-based.
Source text: as §1

Assay [3] concerns the target T3, 5-HT1A receptor. The experiment in a line: 5-HT1A receptor affinity: displacement of [3H] 8-OH-DPAT. The arrangement: expressed in transfected cells. It is filed as binding. The following applies: displacement of [3H] 8-OH-DPAT; CHO cells stably transfected with human 5-HT1A receptors; read-out: 5-HT1A Receptor Affinity Ki.
The mark [4] stands for this setting: maximum inhibitory effect, in brackets after IC50, read-out: 5-HT1A Function GTPγS (Imax).
Setting [5] is: maximum stimulatory effect, in brackets after EC50, read-out: 5-HT1A Function GTPγS (Emax).

We go through 8 compounds from US20050032873A1, “3-Amino chroman and 2-amino tetralin derivatives” (Wyeth, priority 2003, published 2005).

The structures appear in SMILES notation. Like-named read-outs stand apart in the source and are kept apart here.

T1 sequence (P31652 whole entry): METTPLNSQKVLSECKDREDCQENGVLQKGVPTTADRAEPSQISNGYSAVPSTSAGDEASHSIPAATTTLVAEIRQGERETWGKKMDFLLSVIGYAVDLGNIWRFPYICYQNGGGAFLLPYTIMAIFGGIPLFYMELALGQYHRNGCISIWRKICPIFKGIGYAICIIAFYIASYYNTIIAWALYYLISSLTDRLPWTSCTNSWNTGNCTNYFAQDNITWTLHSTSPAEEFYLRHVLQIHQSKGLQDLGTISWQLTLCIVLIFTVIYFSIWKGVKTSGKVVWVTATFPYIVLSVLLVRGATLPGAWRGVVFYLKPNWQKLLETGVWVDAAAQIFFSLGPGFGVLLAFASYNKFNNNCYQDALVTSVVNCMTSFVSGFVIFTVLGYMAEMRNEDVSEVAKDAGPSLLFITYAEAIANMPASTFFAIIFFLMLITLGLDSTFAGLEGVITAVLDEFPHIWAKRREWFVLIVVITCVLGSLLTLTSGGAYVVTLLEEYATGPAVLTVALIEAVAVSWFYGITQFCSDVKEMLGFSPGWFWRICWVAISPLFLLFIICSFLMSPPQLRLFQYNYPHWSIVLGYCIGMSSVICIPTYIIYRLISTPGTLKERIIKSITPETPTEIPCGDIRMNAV

Consider `COc1cccc2c1C[C@@H](N(CCCc1c[nH]c3ccc(F)cc13)C1CCC1)CO2` [Compound 35, (3R)-N-cyclobutyl-N-[3-(5-fluoro-1H-indol-3-yl)propyl]-5-methoxy-3,4-dihydro-2H-chromen-3-amine], for which the Ki on serotonin transporter was determined as 41 nM; at 5-HT1A receptor [3] it was 2.14 nM. Moreover, the IC50 in assay [1] is 489 nM; at 5-HT1A receptor [2], 23.4 nM. Further, the figures for the Emax (in assay [1] (setting [4]); at 5-HT1A receptor [2] (in brackets after EC50 or IC50)) were 80% and 0%, respectively.
In the case of `CCCN(C1COc2cccc(OC)c2C1)[C@H]1CC[C@@H](c2c[nH]c3ccc(F)cc32)CC1` (relative stereo) [Compound 182, cis-N-[4-(5-fluoro-1H-indol-3-yl)cyclohexyl]-5-methoxy-N-propylchroman-3-amine], the results for the Ki at serotonin transporter and at 5-HT1A receptor [3] were 128 nM and 237 nM, respectively. Moreover, the values for the EC50 (in assay [1]; on 5-HT1A receptor [2]) were 893 nM and 184 nM, respectively. Also, the Emax was 64.5% in assay [1] (setting [5]) and 65% at 5-HT1A receptor [2] (in brackets after EC50 or IC50).
Consider `CCCN(C(C)CCc1c[nH]c2ccc(C#N)cc12)C1COc2c(F)ccc(C(N)=O)c2C1` (single isomer, unassigned) [Compound 13a, 3-[[3-(5-cyano-1H-indol-3-yl)-1-methylpropyl](propyl)amino]-8-fluoro-3,4-dihydro-2H-chromene-5-carboxamide], for which the Ki amounted to 23.5 nM on serotonin transporter and 24.3 nM at 5-HT1A receptor [3]. The IC50 turned out to be 534 nM in assay [1] and 76.6 nM on 5-HT1A receptor [2]. Also, the Emax in assay [1] (setting [4]) came to 100%. Besides, on 5-HT1A receptor [2] (in brackets after EC50 or IC50), the 5-HT1A Function cAMP (Emax) stood at 0%.
For `CCCN(CCC(O)c1csc2ccc(F)cc12)C1COc2c(F)ccc(C(N)=O)c2C1` (centres unmarked) [Compound 17, 8-fluoro-3-[[3-(5-fluoro-1-benzothien-3-yl)-3-hydroxypropyl](propyl)amino]chromane-5-carboxamide], the Ki worked out at 159 nM at serotonin transporter and 0.88 nM at 5-HT1A receptor [3]. In addition, the EC50 in assay [1] was 93.3 nM; at 5-HT1A receptor [2], 76.2 nM. Further, the values for the Emax (in assay [1] (setting [5]); on 5-HT1A receptor [2] (in brackets after EC50 or IC50)) were 42% and 74.5%, respectively.
For `CCN(CCCCc1coc2ccccc12)C1COc2cccc(OC)c2C1` (centres unmarked) [Compound 22, N-[4-(1-benzofuran-3-yl)butyl]-N-ethyl-N-(5-methoxy-3,4-dihydro-2H-chromen-3-yl)amine], the Ki amounted to 35.7 nM at serotonin transporter and 4.77 nM at 5-HT1A receptor [3]. Besides, the results for the EC50 (in assay [1]; at 5-HT1A receptor [2]) were 224 nM and 31 nM, respectively. The IC50 in assay [1] amounted to 1180 nM. Further, the Emax was determined as 31% in assay [1] (setting [4]), 82% in assay [1] (setting [5]) and 100% at 5-HT1A receptor [2] (in brackets after EC50 or IC50).
Take `CNC(=O)c1ccc(F)c2c1CC(N(CCc1c[nH]c3ccc(F)cc13)CC1CC1)CO2` (centres unmarked) [Compound 86, 3-{(cyclopropylmethyl)[2-(5-fluoro-1H-indol-3-yl)ethyl]amino}-8-fluoro-N-methylchromane-5-carboxamide]: the Ki on serotonin transporter was found to be 70 nM; at 5-HT1A receptor [3] it was 8.82 nM. In addition, the IC50 stood at 773 nM in assay [1] and 229 nM at 5-HT1A receptor [2]. In addition, the figures for the Emax (in assay [1] (setting [4]); on 5-HT1A receptor [2] (in brackets after EC50 or IC50)) were 100% and 0%, respectively.
On to `COc1cccc2c1CC(N(CCCc1c[nH]c3ccccc13)CC1CC1)CO2` (centres unmarked) [Compound 43, N-(cyclopropylmethyl)-N-[3-(1H-indol-3-yl)propyl]-N-(5-methoxy-3,4-dihydro-2H-chromen-3-yl)amine], for which the Ki on serotonin transporter worked out at 40.9 nM; at 5-HT1A receptor [3], 1.02 nM. The figures for the EC50 (in assay [1]; at 5-HT1A receptor [2]) were 51.3 nM and 10.8 nM, respectively. In addition, the Emax stood at 100% in assay [1] (setting [5]) and 91.5% on 5-HT1A receptor [2] (in brackets after EC50 or IC50).
For `CC(CCc1c[nH]c2c(F)cc(F)cc12)N(CC1CC1)C1COc2c(F)ccc(C(N)=O)c2C1` (single isomer, unassigned) [Compound 154c, 3-{(cyclopropylmethyl)[3-(5,7-difluoro-1H-indol-3-yl)-1-methylpropyl]amino}-8-fluorochromane-5-carboxamide], the Ki at serotonin transporter came to 67.5 nM; at 5-HT1A receptor [3], 24.8 nM. For the same compound, the figures for the IC50 (in assay [1]; at 5-HT1A receptor [2]) were 1990 nM and 3090 nM, respectively. The 5-HT1A Function GTPγS (Imax) in assay [1] (maximum inhibitory effect, in brackets after IC50) stood at 100%. Besides, the Emax at 5-HT1A receptor [2] (in brackets after EC50 or IC50) was found to be 0%.
